Patent publication US20240210412A1, “SULFONYL-TRIAZOLE COMPOUNDS USEFUL AS LIGANDS AND INHIBITORS OF PROSTAGLANDIN REDUCTASE 2” (University of Virginia Patent Foundation, priority 2021, published 2024)

Tests used:
Assay in all cases: SILAC LC-MS ABPP
Format in all cases: cell-based
Settings in all cases: 25 μM 2 h, live DM93 cells
[1] = molecular target: T1, P50749 (Homo sapiens, UniProt P50749)
T1 construct: Probe-modified proteins from the soluble fraction were conjugated to a desthiobiotin-azide tag; endogenous in cells; host or cells: DM93 cells (SILAC)
Procedure, shortened: (§1)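 First, heavy-labelled DM93 cells were exposed to SuTEx ligand (25 μM) and light cells to DMSO, 2 h at 37 °C. Second, HHS-475 (100 μM) was added for 2 h. Third, soluble lysates were clicked to desthiobiotin-azide, pooled 1:1, trypsin-digested, avidin-enriched and analysed by LC-MS/MS.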

[2] = molecular target: T2, Q9BPW8 (Homo sapiens, UniProt Q9BPW8)
T2 construct: endogenous in cells; host or cells: DM93 cells (SILAC), treated live; soluble proteome analysed
Procedure, shortened: as §1

[3] = molecular target: T3, P61289 (Homo sapiens, UniProt P61289)
T3 construct: endogenous in cells; host or cells: DM93 cells (SILAC)
Procedure, shortened: as §1

[4] = molecular target: T4, Q14978 (Homo sapiens, UniProt Q14978)
T4 construct: performing SuTEx compound screening directly in cells; endogenous in cells; host or cells: DM93 cells (SILAC), soluble fraction
Procedure, shortened: as §1

[5] = molecular target: T5, Q8IX04 (Homo sapiens, UniProt Q8IX04)
T5 construct: endogenous in cells; host or cells: DM93 cells (SILAC), live-cell treatment
Procedure, shortened: as §1

[6] = molecular target: T6, Q7Z460 (Homo sapiens, UniProt Q7Z460)
T6 construct: endogenous in cells; host or cells: DM93 cells (SILAC), live-cell treatment
Procedure, shortened: as §1

[7] = molecular target: T7, O43776 (Homo sapiens, UniProt O43776)
T7 construct: endogenous in cells; host or cells: DM93
Procedure, shortened: as §1

[8] = molecular target: T8, P25685 (Homo sapiens, UniProt P25685)
T8 construct: endogenous in cells; host or cells: DM93 (SILAC)
Procedure, shortened: as §1

[9] = molecular target: T9, Q9NW64 (Homo sapiens, UniProt Q9NW64)
T9 construct: endogenous in cells; host or cells: DM93 cells (SILAC)
Procedure, shortened: as §1

[10] = molecular target: T10, P17066 (Homo sapiens, UniProt P17066)
T10 construct: Probe-modified proteins from the soluble fraction were conjugated to a desthiobiotin-azide tag; endogenous in cells; host or cells: DM93 (SILAC)
Procedure, shortened: as §1

[11] = molecular target: T11, Q16576 (Homo sapiens, UniProt Q16576)
T11 construct: performing SuTEx compound screening directly in cells; endogenous in cells; host or cells: DM93 cells (SILAC), soluble fraction
Procedure, shortened: as §1

[12] = molecular target: T12, Q14247 (Homo sapiens, UniProt Q14247)
T12 construct: performing SuTEx compound screening directly in cells; endogenous in cells; host or cells: DM93 cells (SILAC), soluble fraction
Procedure, shortened: as §1

[13] = molecular target: T13, Q14694 (Homo sapiens, UniProt Q14694)
T13 construct: performing SuTEx compound screening directly in cells; endogenous in cells; host or cells: DM93 cells (SILAC), soluble fraction
Procedure, shortened: as §1

[14] = molecular target: T14, P30533 (Homo sapiens, UniProt P30533)
T14 construct: endogenous in cells; host or cells: DM93 (SILAC)
Procedure, shortened: as §1

[15] = molecular target: T15, Q9Y2H2 (Homo sapiens, UniProt Q9Y2H2)
T15 construct: endogenous in cells; host or cells: DM93 cells (SILAC)
Procedure, shortened: as §1

[16] = molecular target: T16, O75521 (Homo sapiens, UniProt O75521)
T16 construct: endogenous in cells; host or cells: DM93 cells (SILAC)
Procedure, shortened: as §1

[17] = molecular target: T17, Q9UPP1 (Homo sapiens, UniProt Q9UPP1)
T17 construct: endogenous in cells; host or cells: DM93 cells (SILAC)
Procedure, shortened: as §1

[18] = molecular target: T18, O60763 (Homo sapiens, UniProt O60763)
T18 construct: endogenous in cells; host or cells: DM93
Procedure, shortened: as §1

T16 sequence (O75521 39-394): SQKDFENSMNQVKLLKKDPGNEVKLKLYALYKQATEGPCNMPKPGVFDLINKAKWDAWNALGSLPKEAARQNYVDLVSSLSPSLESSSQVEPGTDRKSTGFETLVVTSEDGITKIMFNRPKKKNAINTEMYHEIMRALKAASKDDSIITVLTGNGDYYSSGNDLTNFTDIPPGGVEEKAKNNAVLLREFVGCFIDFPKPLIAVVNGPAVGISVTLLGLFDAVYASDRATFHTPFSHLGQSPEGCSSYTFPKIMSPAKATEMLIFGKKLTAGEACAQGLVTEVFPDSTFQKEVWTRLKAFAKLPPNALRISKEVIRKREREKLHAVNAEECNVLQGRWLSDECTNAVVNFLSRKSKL
T5 sequence (Q8IX04 whole entry): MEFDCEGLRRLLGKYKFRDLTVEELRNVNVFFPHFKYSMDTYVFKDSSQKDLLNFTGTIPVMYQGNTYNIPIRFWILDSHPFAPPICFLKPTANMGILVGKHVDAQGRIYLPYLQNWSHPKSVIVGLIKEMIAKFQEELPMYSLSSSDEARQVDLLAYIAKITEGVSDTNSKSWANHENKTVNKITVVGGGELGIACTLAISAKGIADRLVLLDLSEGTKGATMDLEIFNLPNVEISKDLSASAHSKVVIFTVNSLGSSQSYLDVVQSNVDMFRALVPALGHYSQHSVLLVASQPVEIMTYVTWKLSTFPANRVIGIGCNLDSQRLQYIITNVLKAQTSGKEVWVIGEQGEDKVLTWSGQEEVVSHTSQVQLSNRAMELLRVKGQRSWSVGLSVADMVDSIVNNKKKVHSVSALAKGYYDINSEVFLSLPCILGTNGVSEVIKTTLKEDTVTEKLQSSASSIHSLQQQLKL
T12 sequence (Q14247 whole entry): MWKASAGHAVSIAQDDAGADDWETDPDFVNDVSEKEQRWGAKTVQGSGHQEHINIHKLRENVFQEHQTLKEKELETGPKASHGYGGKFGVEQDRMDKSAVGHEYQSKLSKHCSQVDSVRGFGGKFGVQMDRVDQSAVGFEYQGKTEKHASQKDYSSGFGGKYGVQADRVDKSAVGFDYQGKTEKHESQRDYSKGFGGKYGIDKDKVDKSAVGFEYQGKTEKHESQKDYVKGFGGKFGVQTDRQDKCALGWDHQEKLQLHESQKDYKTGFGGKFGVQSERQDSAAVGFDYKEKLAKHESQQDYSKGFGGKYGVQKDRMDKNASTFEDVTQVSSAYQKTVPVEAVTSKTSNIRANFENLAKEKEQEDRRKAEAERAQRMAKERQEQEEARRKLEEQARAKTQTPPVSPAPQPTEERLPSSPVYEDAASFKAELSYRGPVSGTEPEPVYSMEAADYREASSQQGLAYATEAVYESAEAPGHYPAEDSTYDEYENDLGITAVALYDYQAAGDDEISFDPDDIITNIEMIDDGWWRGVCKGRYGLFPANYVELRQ
T13 sequence (Q14694 whole entry): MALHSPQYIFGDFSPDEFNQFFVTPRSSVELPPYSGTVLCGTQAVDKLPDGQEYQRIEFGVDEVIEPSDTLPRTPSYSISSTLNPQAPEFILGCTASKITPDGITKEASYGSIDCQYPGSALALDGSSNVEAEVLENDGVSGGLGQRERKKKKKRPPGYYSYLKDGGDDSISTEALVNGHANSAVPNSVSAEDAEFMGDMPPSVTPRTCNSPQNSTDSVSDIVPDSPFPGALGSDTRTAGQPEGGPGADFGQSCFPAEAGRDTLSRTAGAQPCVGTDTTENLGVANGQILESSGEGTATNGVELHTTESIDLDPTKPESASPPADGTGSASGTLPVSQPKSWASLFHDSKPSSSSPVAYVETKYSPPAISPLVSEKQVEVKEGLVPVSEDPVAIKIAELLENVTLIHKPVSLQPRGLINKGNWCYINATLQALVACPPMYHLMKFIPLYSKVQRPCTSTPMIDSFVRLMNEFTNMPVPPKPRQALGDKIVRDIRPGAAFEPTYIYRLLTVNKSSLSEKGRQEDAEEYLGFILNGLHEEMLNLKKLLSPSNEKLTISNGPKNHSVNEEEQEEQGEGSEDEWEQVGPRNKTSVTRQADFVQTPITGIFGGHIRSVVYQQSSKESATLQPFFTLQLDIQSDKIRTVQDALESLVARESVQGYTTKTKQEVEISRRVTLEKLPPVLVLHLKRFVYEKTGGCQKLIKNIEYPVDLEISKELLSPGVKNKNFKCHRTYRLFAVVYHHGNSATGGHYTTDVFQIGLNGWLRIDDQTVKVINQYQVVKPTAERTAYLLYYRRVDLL
T7 sequence (O43776 whole entry): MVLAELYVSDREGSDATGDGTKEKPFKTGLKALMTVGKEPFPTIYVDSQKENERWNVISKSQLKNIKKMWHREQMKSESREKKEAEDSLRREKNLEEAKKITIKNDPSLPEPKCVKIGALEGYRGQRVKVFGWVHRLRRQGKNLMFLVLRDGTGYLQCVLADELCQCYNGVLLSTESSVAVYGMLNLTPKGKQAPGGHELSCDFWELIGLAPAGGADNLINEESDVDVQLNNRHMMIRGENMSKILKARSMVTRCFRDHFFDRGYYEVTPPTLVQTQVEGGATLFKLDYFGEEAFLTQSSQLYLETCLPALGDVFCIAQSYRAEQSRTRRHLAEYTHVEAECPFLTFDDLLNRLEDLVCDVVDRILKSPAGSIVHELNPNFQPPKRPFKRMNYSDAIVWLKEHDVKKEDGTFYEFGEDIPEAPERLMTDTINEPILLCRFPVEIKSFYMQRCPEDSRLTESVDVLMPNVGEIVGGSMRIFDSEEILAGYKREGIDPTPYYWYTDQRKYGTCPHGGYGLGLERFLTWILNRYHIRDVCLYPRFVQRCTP
T4 sequence (Q14978 whole entry): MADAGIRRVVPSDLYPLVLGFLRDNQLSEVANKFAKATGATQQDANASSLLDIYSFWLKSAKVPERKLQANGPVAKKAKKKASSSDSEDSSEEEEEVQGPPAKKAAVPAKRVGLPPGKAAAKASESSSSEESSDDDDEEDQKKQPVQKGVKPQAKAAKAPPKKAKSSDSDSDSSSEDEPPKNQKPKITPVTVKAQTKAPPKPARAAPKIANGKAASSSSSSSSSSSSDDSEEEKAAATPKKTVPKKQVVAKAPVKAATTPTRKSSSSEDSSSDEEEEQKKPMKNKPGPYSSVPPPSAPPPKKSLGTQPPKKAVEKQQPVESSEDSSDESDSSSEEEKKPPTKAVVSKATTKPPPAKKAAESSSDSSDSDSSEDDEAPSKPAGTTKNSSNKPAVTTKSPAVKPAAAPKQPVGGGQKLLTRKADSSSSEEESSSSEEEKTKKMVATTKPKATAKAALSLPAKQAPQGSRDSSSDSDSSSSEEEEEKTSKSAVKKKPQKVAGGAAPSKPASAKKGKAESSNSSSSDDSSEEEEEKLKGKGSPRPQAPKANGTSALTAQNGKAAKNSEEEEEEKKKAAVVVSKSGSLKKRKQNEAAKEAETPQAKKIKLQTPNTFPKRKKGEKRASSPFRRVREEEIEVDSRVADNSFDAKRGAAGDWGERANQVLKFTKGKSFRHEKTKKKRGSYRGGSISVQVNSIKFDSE
T11 sequence (Q16576 whole entry): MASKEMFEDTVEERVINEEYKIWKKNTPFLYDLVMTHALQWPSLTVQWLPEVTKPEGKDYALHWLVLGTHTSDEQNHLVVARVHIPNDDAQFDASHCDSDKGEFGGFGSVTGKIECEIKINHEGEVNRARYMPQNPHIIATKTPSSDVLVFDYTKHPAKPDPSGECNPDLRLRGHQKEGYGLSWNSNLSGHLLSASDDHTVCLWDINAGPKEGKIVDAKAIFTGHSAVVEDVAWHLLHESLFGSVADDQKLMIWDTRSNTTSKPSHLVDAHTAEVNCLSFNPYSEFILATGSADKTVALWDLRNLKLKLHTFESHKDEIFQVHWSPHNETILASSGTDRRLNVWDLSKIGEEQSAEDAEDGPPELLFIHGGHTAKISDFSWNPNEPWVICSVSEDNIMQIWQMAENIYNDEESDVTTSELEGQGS
T3 sequence (P61289 whole entry): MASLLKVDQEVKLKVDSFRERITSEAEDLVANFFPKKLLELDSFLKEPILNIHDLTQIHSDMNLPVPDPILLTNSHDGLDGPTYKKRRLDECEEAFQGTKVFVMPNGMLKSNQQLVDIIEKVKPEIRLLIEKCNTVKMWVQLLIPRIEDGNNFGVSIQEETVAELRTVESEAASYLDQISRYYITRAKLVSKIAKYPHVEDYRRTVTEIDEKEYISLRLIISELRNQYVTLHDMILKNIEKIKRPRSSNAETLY
T9 sequence (Q9NW64 whole entry): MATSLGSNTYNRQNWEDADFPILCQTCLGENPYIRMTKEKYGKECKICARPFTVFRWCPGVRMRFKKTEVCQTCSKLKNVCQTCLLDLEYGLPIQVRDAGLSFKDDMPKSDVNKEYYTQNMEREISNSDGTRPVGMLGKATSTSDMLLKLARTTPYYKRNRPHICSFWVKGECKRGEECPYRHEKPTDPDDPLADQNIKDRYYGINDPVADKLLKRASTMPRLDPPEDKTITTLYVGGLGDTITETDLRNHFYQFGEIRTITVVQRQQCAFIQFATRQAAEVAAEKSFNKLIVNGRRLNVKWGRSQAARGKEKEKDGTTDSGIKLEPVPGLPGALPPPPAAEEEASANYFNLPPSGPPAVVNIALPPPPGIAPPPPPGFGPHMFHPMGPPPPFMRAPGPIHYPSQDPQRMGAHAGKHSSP
T14 sequence (P30533 35-357): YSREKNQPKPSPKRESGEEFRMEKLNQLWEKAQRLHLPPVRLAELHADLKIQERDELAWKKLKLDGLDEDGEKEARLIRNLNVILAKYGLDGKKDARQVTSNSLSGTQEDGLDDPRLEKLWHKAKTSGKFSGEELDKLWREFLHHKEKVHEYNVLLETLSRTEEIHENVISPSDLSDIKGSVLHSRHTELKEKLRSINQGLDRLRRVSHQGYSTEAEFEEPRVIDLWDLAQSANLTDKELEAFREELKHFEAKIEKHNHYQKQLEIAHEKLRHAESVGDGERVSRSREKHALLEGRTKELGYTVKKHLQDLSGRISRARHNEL

O=C(c1ccc(S(=O)(=O)n2cncn2)cc1)N1CCC(c2ccccc2)CC1 [HHS-0701, (4-((1H-1,2,4-triazol-1-yl)sulfonyl)phenyl)(4-phenylpiperidin-1-yl)methanone]
liganded tyrosine site 270 [1]: HHS0701.Y (tyrosine sites that showed >80% reductions (SR >5) in probe labeling in cells treated with compounds (liganded sites))
liganded tyrosine site 83 [2]: HHS0701.Y (tyrosine sites that showed >80% reductions (SR >5) in probe labeling in cells treated with compounds (liganded sites))

O=C(NC1CC1)c1ccc(S(=O)(=O)n2cncn2)cc1 [HHS-0101, 4-((1H-1,2,4-triazol-1-yl)sulfonyl)-N-cyclopropylbenzamide]
liganded tyrosine site 196 [3]: HHS0101.Y|HHS0201.Y|HHS0401.Y (tyrosine sites that showed >80% reductions (SR >5) in probe labeling in cells treated with compounds (liganded sites))
liganded tyrosine site 289 [4]: HHS0101.Y|HHS0701.Y (tyrosine sites that showed >80% reductions (SR >5) in probe labeling in cells treated with compounds (liganded sites))
liganded tyrosine site 158 [5]: HHS0101.Y|HHS0201.Y|HHS0301.Y (tyrosine sites that showed >80% reductions (SR >5) in probe labeling in cells treated with compounds (liganded sites))
liganded tyrosine site 1267 [6]: HHS0101.Y|HHS0301.Y|HHS0401.Y (tyrosine sites that showed >80% reductions (SR >5) in probe labeling in cells treated with compounds (liganded sites))
liganded tyrosine site 45 [7]: HHS0101.Y (tyrosine sites that showed >80% reductions (SR >5) in probe labeling in cells treated with compounds (liganded sites))

O=C(NC1CCCCC1)c1ccc(S(=O)(=O)n2cncn2)cc1 [HHS-0301, 4-((1H-1,2,4-triazol-1-yl)sulfonyl)-N-cyclohexylbenzamide]
liganded tyrosine site 52 [8]: HHS0301.Y (tyrosine sites that showed >80% reductions (SR >5) in probe labeling in cells treated with compounds (liganded sites))
liganded tyrosine site 116 [9]: HHS0301.Y (tyrosine sites that showed >80% reductions (SR >5) in probe labeling in cells treated with compounds (liganded sites))
liganded tyrosine site 373 [10]: HHS0301.Y (tyrosine sites that showed >80% reductions (SR >5) in probe labeling in cells treated with compounds (liganded sites))
liganded tyrosine site 153 [11]: HHS0301.Y|HHS0701.Y (tyrosine sites that showed >80% reductions (SR >5) in probe labeling in cells treated with compounds (liganded sites))
liganded tyrosine site 154 [12]: HHS0301.Y|HHS0401.Y (tyrosine sites that showed >80% reductions (SR >5) in probe labeling in cells treated with compounds (liganded sites))
liganded tyrosine site 359 [13]: HHS0301.Y (tyrosine sites that showed >80% reductions (SR >5) in probe labeling in cells treated with compounds (liganded sites))
liganded tyrosine site 336 [14]: HHS0301.Y|HHS0701.Y (tyrosine sites that showed >80% reductions (SR >5) in probe labeling in cells treated with compounds (liganded sites))

O=C(NCc1ccccc1)c1ccc(S(=O)(=O)n2cncn2)cc1 [HHS-0401, 4-((1H-1,2,4-triazol-1-yl)sulfonyl)-N-benzylbenzamide]
liganded tyrosine site 887 [15]: HHS0401.Y|HHS0701.Y (tyrosine sites that showed >80% reductions (SR >5) in probe labeling in cells treated with compounds (liganded sites))

O=C(NCC1CC1)c1ccc(S(=O)(=O)n2cncn2)cc1 [HHS-0201, 4-((1H-1,2,4-triazol-1-yl)sulfonyl)-N-(cyclopropylmethyl)benzamide]
liganded tyrosine site 285 [16]: HHS0201.Y|HHS0301.Y|HHS0401.Y (tyrosine sites that showed >80% reductions (SR >5) in probe labeling in cells treated with compounds (liganded sites))
liganded tyrosine site 383 [17]: HHS0201.Y (tyrosine sites that showed >80% reductions (SR >5) in probe labeling in cells treated with compounds (liganded sites))
liganded tyrosine site 718 [18]: HHS0201.Y (tyrosine sites that showed >80% reductions (SR >5) in probe labeling in cells treated with compounds (liganded sites))
